These results are taken from ChEMBL document CHEMBL5226340, “Chemical Biology of Sortase A Inhibition: A Gateway to Anti-infective Therapeutic Agents” (J Med Chem, 2021).

In experiment [1] the target is T1, Sortase A (Staphylococcus aureus) (UniProt Q9S446).
T1 sequence (whole entry): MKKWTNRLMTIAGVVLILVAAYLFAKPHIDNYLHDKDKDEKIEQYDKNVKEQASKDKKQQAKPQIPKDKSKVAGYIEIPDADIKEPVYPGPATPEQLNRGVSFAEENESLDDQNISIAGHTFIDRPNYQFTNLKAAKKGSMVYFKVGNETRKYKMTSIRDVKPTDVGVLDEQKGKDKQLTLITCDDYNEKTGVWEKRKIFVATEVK
The experiment can be described thus: Binding affinity to Staphylococcus aureus SrtA assessed as first order rate constant of inactivation.

In experiment [2] the target is T1, Sortase A (Staphylococcus aureus). The experiment can be described thus: Binding affinity to Staphylococcus aureus SrtA using Abz-DNP as substrate assessed as second order rate constant of inhibition, kinact/ki.
The target in experiment [3] is T2, Sortase A (Staphylococcus aureus, UniProt Q9S446).
T2 sequence (Q9S446 whole entry): T1 sequence (whole entry)
The experiment can be described thus: Binding affinity to Staphylococcus aureus SrtA assessed as inhibition constant.

Experiment [4] deals with Staphylococcus aureus. The experiment can be described thus: Antibacterial activity against Staphylococcus aureus. In kind it is functional.
Experiment [5] deals with T2, Sortase A. The experiment can be described thus: Inhibition of wild type recombinant Staphylococcus aureus ATCC 25904 Sortase A expressed in Escherichia coli BL21 using Dabcyl-QALPETGEE-Edans as substrate incubated for 30 mins followed by substrate addition and measured after 60 mins by FRET assay.
The target of experiment [6] is T2, Sortase A. The experiment can be described thus: Inhibition of Staphylococcus aureus ATCC 6538p SrtA using dabcyl-LPETG-edans as substrate incubated for 1 hr by fluorometric analysis.
Experiment [7] has as its target T2, Sortase A. The experiment can be described thus: Inhibition of Staphylococcus aureus USA 300 SrtA expressed in Escherichia coli BL21 (DE3) cells using Dabcyl-QALPETGEE-Edans as substrate preincubated for 30 mins followed by substrate addition and further incubated for 1 hr by FRET assay.
Experiment [8] deals with T2, Sortase A. The experiment can be described thus: Inhibition of Staphylococcus aureus SrtA transpeptidation activity.
Experiment [9] deals with T2, Sortase A. The experiment can be described thus: Inhibition of Staphylococcus aureus SrtA using […] as substrate by FRET assay.
Experiment [10] deals with T2, Sortase A. The experiment can be described thus: Inhibition of Staphylococcus aureus SrtA expressed in Escherichia coli BL21 (DE3) cells using Abz-LPETG-Dap(Dnp) as substrate preincubated for 30 mins followed by substrate addition and further incubated for 30 mins by HPLC analysis.
Experiment [11] has as its target T1, Sortase A (Staphylococcus aureus). The experiment can be described thus: Inhibition of Staphylococcus aureus SrtA expressed in Escherichia coli BL21 (DE3) cells using Abz-LPETG-Dap(Dnp) as substrate assessed as kinact/ki.
In experiment [12] the target is T2, Sortase A. The experiment can be described thus: Inhibition of Staphylococcus aureus USA 300 SrtA expressed in Escherichia coli BL21 (DE3) cells using Dabcyl-QALPETGEE-Edans as substrate incubated for 1 hr by FRET assay.
For experiment [13], the target named is T2, Sortase A. The experiment can be described thus: Inhibition of C-terminal 6His-tagged recombinant Staphylococcus aureus SrtA with 1 to 59 residues truncated from N-terminus expressed in Escherichia coli BL21 (DE3) using dabcyl-QALPETGEE-edans as substrate preincubated for 1 hr followed by substrate addition and measured for 1 hr by FRET assay.
Experiment [14] concerns Staphylococcus aureus. The experiment can be described thus: Inhibition of biofilm formation in Staphylococcus aureus ATCC 6538 incubated for 24 hrs by crystal violet staining based analysis. In kind it is functional, organism-based. The conditions noted are these: ATCC 6538, 24 h.
Experiment [15] concerns Staphylococcus aureus. The experiment can be described thus: Inhibition of biofilm formation in Staphylococcus aureus ATCC 25923 at 100 uM incubated for 24 hrs by safranin staining based analysis relative to control. In kind it is functional.
The test system of experiment [16] is Staphylococcus aureus. The experiment can be described thus: Inhibition of biofilm formation in Staphylococcus aureus ATCC 29213 at 100 uM incubated for 24 hrs by safranin staining based analysis relative to control. In kind it is functional.
The subject of experiment [17] is Staphylococcus aureus. The experiment can be described thus: Inhibition of biofilm formation in Staphylococcus aureus ATCC 6538 at 100 uM incubated for 24 hrs by safranin staining based analysis relative to control. In kind it is functional.
The target in experiment [18] is T2, Sortase A. The experiment can be described thus: Inhibition of Staphylococcus aureus SrtA using EDANS-Dabcyl as substrate by FRET assay.
For experiment [19], the system named is Staphylococcus aureus. The experiment can be described thus: Antibacterial activity against Staphylococcus aureus Newman assessed as inhibition of bacterial growth by spectrophotometer method. In kind it is functional.
Experiment [20] addresses T2, Sortase A. The experiment can be described thus: Inhibition of Staphylococcus aureus SrtA expressed in Escherichia coli by fluorescence based analysis.
In experiment [21] the target is T2, Sortase A. The experiment can be described thus: Inhibition of Staphylococcus aureus SrtA using FRET substrate incubated for 1 hr by FRET assay.

≈ marks a conversion by molar mass, not a printed value.

The term Ki denotes the dissociation constant of the complex between target and ligand, obtained from inhibition or displacement. With `O=C1C[C@H]2O[C@H](CCc3ccccc3)C3=C(C(=O)C=CC3=O)[C@H]2O1`, the Kinact in [1] is 3.88 10^-2/min. For the same compound, in [2], the Ratio was 1.09 10^4/M/min and the kinact/Ki amounted to 183 M⁻¹ s⁻¹. Further, the inhibitory constant (Ki) in experiment [3] was 3.57 µM.

By MIC is commonly meant the lowest concentration found to suppress growth. One may read the IC50 as the concentration that gives 50% inhibition. The compound `COc1ccc(CCc2cc(OC)c(OC)c(OC)c2)cc1O` yielded an MIC in experiment [4] of 1600 µM (≈ 509 µg/mL). Besides, the IC50 in experiment [5] was 65.7 µM.

Compound `C[C@H]1CC[C@H]2[C@@H](C=C[C@@](C)(O)[C@]2(C)C(=O)CCO)C1` had an IC50 in experiment [6] of 146 µM.

As for `O=C(/C=C/c1ccccc1)c1ccccc1` [CHALCONE], the IC50 in experiment [7] worked out at 53.2 µM.

Regarding `O=C(/C=C/c1ccc(O)cc1)O[C@H]1[C@@H](O)[C@H](O)C[C@](O)(C(=O)O)[C@H]1O`, the IC50 in experiment [8] stood at 161 µM.

Turning to `O=c1cc(-c2ccc(O)cc2)oc2cc(O)c([C@@H]3O[C@H](CO)[C@@H](O)[C@H](O)[C@H]3O)c(O)c12` [ISOVITEXIN], the midpoint of inhibition in experiment [9], the IC50, lay at 67 µM.

For the compound `O=S(=O)(/C=C\C(F)(F)F)c1ccccc1`, in experiment [10], half-maximal inhibition (IC50) was put at 190 µM. For the same compound, the Ratio in [11] worked out at 90 M⁻¹ min⁻¹.

In experiment [12], `CCCC(=O)c1c(O)c(CC2=C(O)C(C)(C)C(=O)C(C(C)=O)=C2O)c(O)c(Cc2c(O)c(C(=O)CCC)c(O)c(C(C)C3=C(O)C(C)(C)C(=O)C(C(C)=O)=C3O)c2O)c1O` (stereo not given) gave a concentration for half-maximal inhibition (IC50) of 24.2 µM.

With `CCOC(=O)/C(=N\Nc1c(F)cccc1F)C(=O)c1cc(C)nn1CC`, the MIC in [4] was greater than 200 µM. For the same compound, the IC50 in experiment [13] turned out to be 75 µM; in experiment [14] it was 0.9 µM.

Broadly, the inhibition is the change of the read-out against control, counted positive when it falls. Low values mean a response near the control, high ones a response far below the control. Regarding `CC(=O)/C(=N/Nc1ccccc1)C(=O)O`, in experiment [4], the MIC was greater than 270 µM. In addition, the 50% inhibitory concentration (IC50) in experiment [13] came to 80 µM. Further, the inhibition at 100 µM in experiment [15], in experiment [16] and in [17] was 60% each time.

Consider `O=C(NCCSSCCNC(=O)/C(Cc1ccc(O)c(Br)c1)=N/O)/C(Cc1ccc(O)c(Br)c1)=N/O` [PSAMMAPLIN A], for which the IC50 in experiment [18] came to 47.4 µM. Further, the minimal inhibitory concentration (MIC) in [19] was greater than 200 µg/mL.

Regarding `Cc1cc2nc3[nH]c(=O)[nH]c(=O)c3nc2cc1C` [LUMICHROME], the IC50 in experiment [20] worked out at 198 µM.

Compound `O=c1ccc2cc(O)c(O)cc2o1` [ESCULETIN] showed an IC50 in [21] of 36.2 µM.
